The results in this text go back to ChEMBL document CHEMBL1201862, “PubChem BioAssay data set” (2004).

Test systems include MOLT-4; COLO 205; EKVX; SK-OV-3; UACC-62; NCI-H23; OVCAR-3; CAKI-1; OVCAR-8; SF-268; HT-29; U-251; 786-0; HCT-116; LOX IMVI; MDA-MB-435; KM12; MDA-MB-231; A549.
Holding throughout (assay): NCI-60 cell line screen, 48 h

Each structure is given as a SMILES string.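 Results reflect a 48-hour exposure of cells in 96-well plates to compound at five concentrations. Here, GI50 denotes the concentration required for 50% inhibition of growth.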 Active and inactive are the calls of the source. Rule as the data show it: active = GI50 up to about 1.1 µM and inactive = higher.

`CC(=NNC(=S)Nc1ccc(C)cc1)c1cccc(C(C)=NNC(=S)Nc2ccc(C)cc2)n1`: the GI50 in the test with MOLT-4 is 4.18 µM (inactive); with COLO 205, 3.83 µM (inactive); with EKVX, 21.5 µM (inactive); in the test on SK-OV-3, 47.3 µM (inactive); with UACC-62, 7.14 µM (inactive); with NCI-H23 it was 22 µM (inactive). Besides, the GI50 is 1.5 µM (inactive) in the test with OVCAR-3; 4.75 µM (inactive) with CAKI-1; 6.44 µM (inactive) in the test on OVCAR-8; > 100 µM (inactive) with SF-268; 11.9 µM (inactive) with HT-29; 31.3 µM (inactive) in the test on U-251. The GI50 in the test with 786-0 was 5.9 µM (inactive); in the test on HCT-116, 7.33 µM (inactive); with LOX IMVI, 9.91 µM (inactive); in the test on MDA-MB-435, 13.6 µM (inactive); in the test on KM12, 13.8 µM (inactive); in the test on MDA-MB-231, 24.2 µM (inactive). Also, the GI50 in the test on A549 is 12.9 µM (inactive).

`CC(C)C(NC(=O)Oc1ccccc1)C(=O)NC1c2c(Br)sc(Br)c2C(=O)C1O` (stereo not given): the GI50 in the test with MOLT-4 is 11.9 µM (inactive); in the test on COLO 205, 7.29 µM (inactive); in the test with EKVX it was 6.4 µM (inactive); in the test with SK-OV-3 it was > 25 µM (inactive); with UACC-62, 4.02 µM (inactive); in the test on NCI-H23 it was 4.8 µM (inactive). In addition, the GI50 in the test on OVCAR-3 was 4.14 µM (inactive); in the test on CAKI-1, 6.81 µM (inactive); in the test on OVCAR-8, 4.6 µM (inactive); in the test with SF-268, 6.24 µM (inactive); in the test with HT-29, 4.2 µM (inactive); in the test on U-251, 5.31 µM (inactive). In addition, the GI50 in the test with 786-0 was 8.79 µM (inactive); in the test on HCT-116, 3.97 µM (inactive); with LOX IMVI it was 4.98 µM (inactive); in the test on MDA-MB-435 it was 6.68 µM (inactive); with KM12, > 25 µM (inactive); with MDA-MB-231, 5.11 µM (inactive). Besides, the GI50 in the test with A549 was > 25 µM (inactive).

For the compound `NC(=O)SCCC(N)C(=O)O` (stereo not given), the GI50 with MOLT-4, with COLO 205, with EKVX, in the test on SK-OV-3, in the test on UACC-62 and with NCI-H23 was > 100 µM (inactive) throughout. In addition, the GI50 in the test on OVCAR-3, with CAKI-1, in the test on OVCAR-8, in the test with SF-268, in the test with HT-29 and with U-251 was > 100 µM (inactive) in each case. Besides, the GI50 in the test with 786-0, in the test with HCT-116, with LOX IMVI, with MDA-MB-435, in the test with KM12 and in the test on MDA-MB-231 was > 100 µM (inactive) each time. Also, the GI50 in the test on A549 was > 100 µM (inactive).

Regarding `O=C(Nc1ccccc1)N1CCNC1=S`, the GI50 in the test with MOLT-4 is > 100 µM (inactive); in the test on COLO 205, > 100 µM (inactive); in the test with EKVX it was 53 µM (inactive); in the test on SK-OV-3, > 100 µM (inactive); with UACC-62 it was > 100 µM (inactive); in the test on NCI-H23 it was > 100 µM (inactive). Also, the GI50 with OVCAR-3, in the test with CAKI-1, in the test on OVCAR-8, with SF-268, in the test with HT-29 and in the test on U-251 was > 100 µM (inactive) each time. Besides, the GI50 in the test with 786-0, in the test on HCT-116, with LOX IMVI, with MDA-MB-435, with KM12 and with MDA-MB-231 was > 100 µM (inactive) throughout. Moreover, the GI50 in the test with A549 is > 100 µM (inactive).

With `O=C1C(Br)=Cc2c(Cl)sc(Cl)c21`, the GI50 in the test on MOLT-4 is 0.515 µM (active); with COLO 205 it was 6.76 µM (inactive); in the test on EKVX, 7.24 µM (inactive); in the test on SK-OV-3, 15.5 µM (inactive); in the test on UACC-62 it was 7.91 µM (inactive); with NCI-H23, 8.85 µM (inactive). Besides, the GI50 in the test with OVCAR-3 is 2.67 µM (inactive); in the test on CAKI-1, 3.05 µM (inactive); with OVCAR-8 it was 3.24 µM (inactive); in the test on SF-268, 3.4 µM (inactive); with HT-29, 4.58 µM (inactive); in the test on U-251, 2.59 µM (inactive). Besides, the GI50 is 1.77 µM (inactive) in the test on 786-0; 2.03 µM (inactive) in the test on HCT-116; 2.36 µM (inactive) with LOX IMVI; 2.11 µM (inactive) in the test on MDA-MB-435; 6.5 µM (inactive) with KM12; 3.13 µM (inactive) in the test with MDA-MB-231. Also, the GI50 with A549 is 24.6 µM (inactive).

As to `COc1cc(C2=C(C)[C@@H]3CN(CC=C3c3ccc(Cl)cc3)C2)c(S(=O)(=O)O)cc1OC`, the GI50 with MOLT-4, in the test with COLO 205, with EKVX, in the test with SK-OV-3, in the test with UACC-62 and in the test on NCI-H23 was > 100 µM (inactive) throughout. Moreover, the GI50 in the test on OVCAR-3, in the test with CAKI-1, in the test with OVCAR-8, in the test with SF-268, with HT-29 and with U-251 was > 100 µM (inactive) each time. Besides, the GI50 in the test on 786-0, with HCT-116, in the test with LOX IMVI, in the test with MDA-MB-435, with KM12 and in the test with MDA-MB-231 was > 100 µM (inactive) throughout. In the test with A549, the GI50 is > 100 µM (inactive).

For the compound `CCC(C)(C)c1ccc(Oc2cccc(C(=O)O)c2)cc1`, the GI50 with MOLT-4 is 29.9 µM (inactive); in the test on COLO 205, 38.8 µM (inactive); in the test on EKVX, 40.4 µM (inactive); in the test on SK-OV-3 it was 72.1 µM (inactive); in the test on UACC-62 it was 34.6 µM (inactive); with NCI-H23, 52.2 µM (inactive). Also, the GI50 was 26.7 µM (inactive) in the test with OVCAR-3; 65.6 µM (inactive) in the test with CAKI-1; 69.7 µM (inactive) with OVCAR-8; 46.8 µM (inactive) with SF-268; 44.4 µM (inactive) with HT-29; 41.8 µM (inactive) in the test with U-251. The GI50 in the test on 786-0 is 89.3 µM (inactive); with HCT-116 it was 41.5 µM (inactive); with LOX IMVI, 50.4 µM (inactive); in the test on MDA-MB-435 it was 45 µM (inactive); in the test with KM12 it was 47.1 µM (inactive); in the test with MDA-MB-231 it was > 100 µM (inactive). Moreover, in the test on A549, the GI50 is 38.2 µM (inactive).

Take `COc1cc2c(cc1OCCCCOc1cc3nc(C)nc(Cl)c3cc1OC)N=C[C@@H]1CCCN1C2=O`: the GI50 was 1.7 µM (inactive) in the test on MOLT-4; 19.1 µM (inactive) in the test on COLO 205; 4.73 µM (inactive) with EKVX; 30.4 µM (inactive) in the test with SK-OV-3; 1.48 µM (inactive) with UACC-62; 1.82 µM (inactive) in the test with NCI-H23. Besides, the GI50 is 2.06 µM (inactive) with OVCAR-3; 2.38 µM (inactive) in the test with CAKI-1; 3.01 µM (inactive) with OVCAR-8; 2.74 µM (inactive) in the test on SF-268; 2.42 µM (inactive) in the test with HT-29; 1.26 µM (inactive) with U-251. Further, the GI50 in the test on 786-0 was 3.12 µM (inactive); in the test on HCT-116, 2.21 µM (inactive); in the test on LOX IMVI it was 1.27 µM (inactive); with MDA-MB-435, 1.62 µM (inactive); in the test with KM12, 1.89 µM (inactive); in the test on MDA-MB-231, 1.25 µM (inactive). Moreover, the GI50 in the test on A549 is 2.79 µM (inactive).

With `COC(=O)C1=C(O)C(C(=O)OC)[C@]2(O)[C@H](C(=O)OC)[C@H]1C[C@@H](c1ccc(F)cc1)[C@H]2C(=O)OC` (stereo not given in full), the GI50 was 15.2 µM (inactive) in the test on MOLT-4; 14.7 µM (inactive) in the test with COLO 205; 17.3 µM (inactive) with EKVX; 22.6 µM (inactive) with SK-OV-3; 13.5 µM (inactive) in the test with UACC-62; 14 µM (inactive) in the test with NCI-H23. In addition, the GI50 in the test on OVCAR-3 is 11.1 µM (inactive); with CAKI-1 it was 19.1 µM (inactive); in the test on OVCAR-8, 20.9 µM (inactive); in the test with SF-268, 23.7 µM (inactive); in the test on HT-29, 16.6 µM (inactive); with U-251, 15.4 µM (inactive). Besides, the GI50 in the test with 786-0 was 14.9 µM (inactive); in the test with HCT-116 it was 7.19 µM (inactive); in the test on LOX IMVI, 18.4 µM (inactive); in the test on MDA-MB-435, 5.43 µM (inactive); with KM12, 18.1 µM (inactive); with MDA-MB-231, 30.1 µM (inactive). In addition, the GI50 in the test on A549 was 19.3 µM (inactive).

On to `N=c1oc2ccc(Cl)cc2cc1C(=O)Nc1ccccc1`, for which the GI50 was > 100 µM (inactive) in the test on MOLT-4; > 100 µM (inactive) in the test with COLO 205; > 59 µM (inactive) in the test on EKVX; 23.3 µM (inactive) in the test with SK-OV-3; > 100 µM (inactive) in the test with UACC-62; > 48.5 µM (inactive) in the test with NCI-H23. In addition, the GI50 in the test with OVCAR-3 was > 100 µM (inactive); with CAKI-1, 11.1 µM (inactive); in the test on OVCAR-8, 56.5 µM (inactive); with SF-268, > 76 µM (inactive); in the test on HT-29, > 100 µM (inactive); with U-251 it was > 46.1 µM (inactive). Also, the GI50 in the test with 786-0 was 10.7 µM (inactive); in the test with HCT-116, > 59 µM (inactive); with LOX IMVI it was > 100 µM (inactive); in the test on MDA-MB-435 it was > 100 µM (inactive); with KM12, 79.4 µM (inactive); in the test with MDA-MB-231 it was 53.8 µM (inactive). Also, the GI50 in the test on A549 is > 100 µM (inactive).
